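Protocol summary: plate cells (96-well), add compound at 5 concentrations, incubate 48 h, interpolate endpoints linearly. TGI: concentration producing complete growth inhibition.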
Assays:
Test in all cases: growth of human tumour cells (NCI), 48 h
HCT-116 colon = tested on: HCT-116 colon
MDA-MB-231 breast = tested on: MDA-MB-231 breast
SK-MEL-5 melanoma = tested on: SK-MEL-5 melanoma
A498 renal = tested on: A498 renal
KM12 colon = tested on: KM12 colon
NCI/ADR-RES ovarian = tested on: NCI/ADR-RES ovarian
SW-620 colon = tested on: SW-620 colon
SR leukemia = tested on: SR leukemia
TK-10 renal = tested on: TK-10 renal
IGROV1 ovarian = tested on: IGROV1 ovarian
SNB-19 CNS = tested on: SNB-19 CNS
SK-MEL-2 melanoma = tested on: SK-MEL-2 melanoma
786-0 renal = tested on: 786-0 renal
NCI-H522 lung = tested on: NCI-H522 lung
SF-268 CNS = tested on: SF-268 CNS
HL-60(TB) leukemia = tested on: HL-60(TB) leukemia
HCT-15 colon = tested on: HCT-15 colon
HOP-62 NSCLC = tested on: HOP-62 NSCLC
SK-OV-3 ovarian = tested on: SK-OV-3 ovarian

SMILES	TGI (HCT-116 colon) [µM]	TGI (MDA-MB-231 breast) [µM]	TGI (SK-MEL-5 melanoma) [µM]	TGI (A498 renal) [µM]	TGI (KM12 colon) [µM]	TGI (NCI/ADR-RES ovarian) [µM]	TGI (SW-620 colon) [µM]	TGI (SR leukemia) [µM]	TGI (TK-10 renal) [µM]	TGI (IGROV1 ovarian) [µM]	TGI (SNB-19 CNS) [µM]	TGI (SK-MEL-2 melanoma) [µM]	TGI (786-0 renal) [µM]	TGI (NCI-H522 lung) [µM]	TGI (SF-268 CNS) [µM]	TGI (HL-60(TB) leukemia) [µM]	TGI (HCT-15 colon) [µM]	TGI (HOP-62 NSCLC) [µM]	TGI (SK-OV-3 ovarian) [µM]
Cc1c(C)c2c(c(N)c1C#N)C(=O)N(CCc1ccccc1)C2=O	> 100	> 100	> 100	> 100	> 100	> 100	> 100	> 100	> 100	> 100	> 100	> 100	> 100	> 100	> 100	> 100	> 100		
Cc1ccc2c(c1)C(=O)/C(=N/Nc1ccc(Cl)cc1)CCO2	> 100	> 100	> 100	> 100	> 100	> 100	> 100	> 100	> 100	> 100	> 100	54.6	> 100	> 100	> 100	> 100	> 100	> 100	> 100
COc1cc(OCc2ccc3nc(-c4ccccc4)c(Cl)nc3c2)cc(OC)c1OC	> 100	> 100	> 100	98.9	> 100	> 100	> 100	> 100	> 100	> 100	> 100	> 100	> 100	> 100	> 100	> 100	> 100	> 100	
Cc1oc2c(c1C)S(=O)(=O)C(C#N)=C(c1ccccc1)N2		> 100	> 100	> 100	> 100	> 100	> 100	> 100	> 100	> 100	> 100	> 100	> 100	> 100	> 100		> 100	> 100	> 100
COC(=O)C1=C(O)C(C(=O)OC)[C@]2(O)[C@H](C(=O)OC)[C@H]1C[C@@H](c1ccc(F)cc1)[C@H]2C(=O)OC (stereo partly drawn)	20.3	> 100	25.2	35.1	47.9	36.8	53.4	47.5	57.5	59.8	> 100	19	32		95	7.24	40.8	68.5	77.6
CCN(CC)C(=C(C(Cl)=C(Cl)Cl)[N+](=O)[O-])N(CC)CC	> 100	> 100	> 100	> 100	> 100	> 100	> 100	> 100	> 100	> 100	> 100		> 100		> 100	> 100	> 100	> 100	> 100
O=c1[nH]n(Cc2ccccc2Cl)c2ccc([N+](=O)[O-])cc12	> 100	> 100	52.8	64.3	> 100	> 100	> 100	> 100	> 100	> 100	> 100	> 100	> 100	> 100	> 100	> 100	> 100	> 100	
CNc1c2cccc(C)c2nc2c(C(=O)NCCN(C)C)cccc12	0.453	0.274	0.593	0.935	1.67	1.83	0.424	0.469	0.617	10.6	0.876	0.996	1.47	0.109	0.318		0.634	0.578	1.94
CC1(C)CN=C(c2ccc3c(c2)Cc2cc(C4=NCC(C)(C)N4)ccc2-3)N1	> 100	> 100	> 100	> 100	> 100	> 100	> 100	> 100	> 100	> 100	> 100	49.9	> 100	83.6	> 100		> 100	> 100	> 100
CC1=NN(C(=O)CC(=O)Nc2ccc(C)cc2)C(=O)C1N=Nc1ccc(C(=O)O)cc1 (stereo not drawn)	> 100	> 100	> 100	> 100	> 100	> 100	> 100	> 100	> 100	> 100	> 100	> 100	> 100	> 100	> 100	> 100	> 100	> 100	
CCC(C)C(C(=O)N/N=C1/SCC(=O)N1c1ccccc1)C(=O)N/N=C1/SCC(=O)N1c1ccccc1 (stereo not drawn)	58.9	88.7	41.7		93.9	> 100	> 100	> 100	> 100	> 100	> 100	83.1	> 100	> 100	> 100	> 100	> 100	> 100	74.6
CO[C@H]1c2cccc3cccc(c23)[C@@H]1n1[nH]c(=O)n(C(C)(C)C)c1=O	> 100	> 100		> 100	> 100	> 100	> 100	> 100	> 100	> 100	> 100	> 100	> 100	> 100	> 100	> 100	> 100		> 100
